Laboratory results: patent publication US8389544B2, “Isoquinolone compounds as subtype-selective agonists for melatonin receptors MT1 and MT2” (The Hong Kong University of Science and Technology, priority 2007, dated 2013)

What follows are compounds tested against T1, MT2 receptor (Homo sapiens, UniProt P49286) (assay: CRE-Luc (luciferase reporter gene) assay, MT2). Settings: HEK 293-pCREluc cells with MT2; inhibition of forskolin response.
T1 sequence (P49286 1-362): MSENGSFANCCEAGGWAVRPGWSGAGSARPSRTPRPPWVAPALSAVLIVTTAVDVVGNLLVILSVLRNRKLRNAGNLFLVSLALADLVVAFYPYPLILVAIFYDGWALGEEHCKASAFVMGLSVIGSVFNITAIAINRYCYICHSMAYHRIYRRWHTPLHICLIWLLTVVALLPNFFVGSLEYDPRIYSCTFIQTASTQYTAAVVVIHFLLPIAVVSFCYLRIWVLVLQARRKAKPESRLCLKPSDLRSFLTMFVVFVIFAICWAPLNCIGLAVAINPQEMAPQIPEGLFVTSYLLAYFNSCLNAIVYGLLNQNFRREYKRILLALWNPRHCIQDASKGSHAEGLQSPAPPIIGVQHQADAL
Format: cell-based
Design: expressed in transfected cells
Protocol: The luciferase reporter gene assay offers another way to measure melatonin receptor activation. Cells expressing cAMP-responsive element-driven luciferase reporter gene (293-pCREluc) and either the MT1 or MT2 receptor are treated with forskolin (a substance which stimulates cAMP production as well as the subsequent luciferase gene expression) alone or with a novel isoquinolone compound. As melatonin receptor activation inhibits cAMP production, any suppression in the expression of luciferase leads to a decrease in enzymatic activities and a reduction in the amount of luminescence signal generated.
The luciferase assay, a reporter gene assay, was performed to confirm the ability of the invention to activate the melatonin receptors. Prior to the assay, HEK (human embryonic kidney) 293 cells are stably transfected with cAMP-responsive element-driven luciferase reporter gene (293-pCREluc) and cDNAs encoding MT1 or MT2 receptors. The cells are then exposed to the novel isoquinolone compounds, after which the substrate luciferin is added and the resulting luminescence measured.
Prior to the assay human embryonic kidney (HEK) 293 cells (CRL-1573, ATCC) is maintained at 37° C. in minimum essential medium (MEM) supplemented with 10% fetal bovine serum (FBS), 100 units/ml penicillin and 100 μg/ml streptomycin in a humidified atmosphere containing 5% CO2. Human embryonic kidney 293 cells stably transfected with cAMP-responsive element-driven luciferase reporter gene (293-pCREluc) are established and maintained in growth medium supplemented with 300 μg/ml G418 sulphate.
For luciferase assays, HEK-293 cells stably expressing pCRE-luciferase are seeded at a density of 15,000 cells/well into 96 well plates. Transfection is carried out using Lipofectamine Plus® reagent at 0.2 μl of both Plus and lipofectamine reagents with 50 ng cDNAs encoding MT1 or MT2 receptors per well. After a 3 hour transfection period at 37° C., 50 μl of DMEM with 20% fetal calf serum (FCS) is added into the wells and the plate is incubated at 37° C. for 48 h prior to 24 hour serum starvation. […]
Cells are harvested by replacing medium in the well by 50 μl luciferase lysis buffer. The Berthold microplate luminometer is maintained at 25° C. throughout the assay. Injector M connected to an empty tube and P connected to the drug tube are set to inject 25 μl of luciferin into appropriate wells. A 1.6 second delay time followed by a 1 second measuring time period is assigned to injector M, whereas injector P is measured for 10 seconds after luciferase substrate is introduced into the well. Results are expressed as relative luminescent units (RLU). Where indicated, agonist-induced activity is expressed as a percentage of the RLU obtained with forskolin.

Going from Cn1ccc2cc(OC(=O)c3ccccc3)c(OC(=O)c3ccccc3)cc2c1=O [IS039] to COc1cc2ccn(C)c(=O)c2cc1OCc1ccc(C(C)(C)C)cc1 [IS526], the “CRE-Luc Assay MT2 % Inh ± SEM of 1 μM Fsk” value falls from 69.8 ± 7.2% to 17.8 ± 4.7%.

COc1cc(COc2cc3ccn(C)c(=O)c3cc2OC)cc(OC)c1 [IS042] and COc1cc(COc2cc3c(=O)n(C)ccc3cc2OC)cc(OC)c1 [IS523] are within error of each other in “CRE-Luc Assay MT2 % Inh ± SEM of 1 μM Fsk” value: 71.3 ± 8.8% for the first, 71.6 ± 16.3% for the second.

COc1cccc(COc2cc3ccn(C)c(=O)c3cc2OC)c1 [IS044] and COc1cccc(COc2cc3c(=O)n(C)ccc3cc2OC)c1 [IS521] are within error of each other in “CRE-Luc Assay MT2 % Inh ± SEM of 1 μM Fsk” value: 73.9 ± 12.4% for the first, 70.2 ± 9.2% for the second.

COc1cccc(COc2c(OC)ccc3c(=O)n(C)ccc23)c1 [IS527] and COc1cc(COc2c(OC)ccc3c(=O)n(C)ccc23)cc(OC)c1 [IS528] are within error of each other in “CRE-Luc Assay MT2 % Inh ± SEM of 1 μM Fsk” value: 61.0 ± 9.3% for the first, 60.8 ± 8.5% for the second.

With COc1ccc2c(=O)n(C)ccc2c1OCc1ccc(C)cc1 [IS529] the “CRE-Luc Assay MT2 % Inh ± SEM of 1 μM Fsk” value was 61.3 ± 13.1%.
